{"source": "PubChem BioAssay AID588529", "about": "(Broad Institute, 2011)", "data": [{"system": "Candida albicans CaCi-2 growth, Alamar Blue fluorescence, 48 h", "assay": "antifungal activity of compounds alone, resistant C. albicans – CaCi-2 isolate, Alamar Blue, cherry-pick, dose response (AID 588529)", "units": {"AC50": "µM"}, "values": [{"smiles": "C/C(=N\\NC(=O)c1cc2ccccc2cc1O)c1ccccn1", "AC50": 5}, {"smiles": "CN1CCN(C(c2ccc(C(F)(F)F)cc2)c2ccc3cccnc3c2O)CC1", "note": "(centres undefined)", "AC50": 5.05}, {"smiles": "Oc1c(CN2CCN(c3ccc(F)cc3)CC2)cc(Cl)c2cccnc12", "AC50": 3.73}, {"smiles": "O=Nc1c(-c2cccc([N+](=O)[O-])c2)nc2ncccn12", "AC50": 5.11}, {"smiles": "COc1cccc(N=Nc2ccc3cccnc3c2O)c1", "AC50": 1.52}, {"smiles": "Oc1c(CN2CCN(c3ccccc3)CC2)cc(Br)c2cccnc12", "AC50": 2.38}, {"smiles": "CN1CCN(C(c2ccc(C(F)(F)F)cc2)c2cc(Cl)c3cccnc3c2O)CC1", "note": "(centres undefined)", "AC50": 2.71}, {"smiles": "CCN(CC)S(=O)(=O)c1cc(OC)ccc1N=Nc1ccc(O)c2ncccc12", "AC50": 10.6}, {"smiles": "O=C(Oc1c(Cl)cc(Cl)c2cccnc12)c1cccs1", "AC50": 1.49}, {"smiles": "O=C(N/N=C/c1c(O)ccc2ccccc12)c1cccc(C(F)(F)F)c1", "AC50": 1.45}, {"smiles": "O=Cc1ccc(O)c2ncccc12", "AC50": 3.85}, {"smiles": "C(C#CCCCCCCCCC[n+]1ccccc1)#CCCCCCCCCC[n+]1ccccc1", "AC50": 16.2}, {"smiles": "O=C(Oc1c(Cl)cc(Cl)c2cccnc12)c1ccco1", "AC50": 0.812}, {"smiles": "Oc1c(C(Nc2nccs2)c2ccc(C(F)(F)F)cc2)ccc2cccnc12", "note": "(centres undefined)", "AC50": 3.73}, {"smiles": "CCOC(=O)N1C(=O)C2(CCCCC2)N(c2ccc(C)cc2)C1=S", "AC50": 0.102}, {"smiles": "Oc1ccc(N=Nc2ccc3c(c2)OCCO3)c2ncccc12", "AC50": 2.59}, {"smiles": "CCCCC(=O)NC(c1ccc(Cl)cc1)c1ccc2cccnc2c1O", "note": "(centres undefined)", "AC50": 5.11}, {"smiles": "C=CCNC(=S)N/N=C(\\C)c1ccccn1", "AC50": 13.8}, {"smiles": "CCCCC(=O)NC(c1ccc(N(CC)CC)cc1)c1ccc2cccnc2c1O", "note": "(centres undefined)", "AC50": 3.74}, {"smiles": "CCCCCCC[n+]1ccc(-c2cc[n+](CCCCCCC)cc2)cc1", "AC50": 3.76}, {"smiles": "Oc1c(C(c2ccc(Cl)cc2)N2CCCC2)cc(Cl)c2cccnc12", "note": "(centres undefined)", "AC50": 1.51}, {"smiles": "CCOc1ccc(N=Nc2ccc(O)c3ncccc23)cc1", "AC50": 1.4}, {"smiles": "O=C(N/N=C/c1cc2c3c(c1O)CCCN3CCC2)c1ccccc1O", "AC50": 1.75}, {"smiles": "CCCCC(=O)NC(c1ccco1)c1cc(Cl)c2cccnc2c1O", "note": "(centres undefined)", "AC50": 6.22}, {"smiles": "Oc1ccc(N=Nc2ccc3c(c2)OCCO3)c2cccnc12", "AC50": 3.55}, {"smiles": "O=[N+]([O-])c1cc(CN2CCN(c3ccccc3)CC2)c(O)c2ncccc12", "AC50": 5.39}, {"smiles": "O=[N+]([O-])c1ccc(O)c(/C=N/Nc2ccc(Cl)nn2)c1", "AC50": 5.11}, {"smiles": "Oc1c(C(Nc2nc3ccccc3s2)c2ccco2)ccc2cccnc12", "note": "(centres undefined)", "AC50": 3.26}, {"smiles": "Cc1cc(NC(c2ccc(Cl)cc2)c2ccc3cccnc3c2O)no1", "note": "(centres undefined)", "AC50": 4.71}, {"smiles": "O=c1ccc(N=Nc2ccccc2)ccc1O", "AC50": 4.76}, {"smiles": "COc1ccc(C)cc1N=Nc1ccc(O)c2ncccc12", "AC50": 1.71}, {"smiles": "COc1cccc(/C=N/Nc2ncnc3scc(-c4ccccc4)c23)c1O", "AC50": 5.52}, {"smiles": "Cc1ccc(C(=O)c2coc3c2C(=O)C(=O)c2ccccc2-3)cc1", "AC50": 9.38}, {"smiles": "COc1cccc(N=Nc2ccc(O)c3ncccc23)c1", "AC50": 0.39}]}]}
